Assay results reported in the supplement of paper PMC10307832.

How the values were obtained:
Test in all cases: relative viability (nuclei count vs DMSO), 5 days (fraction); higher = more cells survive
[1] = compound: CCC1=CN=CN=C1N2CCN(CC2)CC3=NC4=C(N3)C=C(C=C4)C(F)(F)F + CC(=O)c1c(C)c2cnc(Nc3ccc(N4CCNCC4)cn3)nc2n(C2CCCC2)c1=O [Palbociclib] (partner 0.5 µM)
Outline: (§1)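 Cells from lung cancer lines were seeded into 1536-well plates and, one day later, dosed by pin tool. Treatments were either a single drug or a fixed dose of an anchor drug with five library-drug doses (not always all listed) in √10 steps. After 5 days, nuclei were stained in a one-step fixation (final 0.05% Triton X-100, 1% formaldehyde, 1 ug/ml Hoechst) and counted on 4× images, and relative viability is the treated-to-vehicle nuclei ratio, as the median of duplicate plates.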

[2] = compound: CCC1=CN=CN=C1N2CCN(CC2)CC3=NC4=C(N3)C=C(C=C4)C(F)(F)F + CC(C)C[C@H](NC(=O)[C@H](Cc1ccccc1)NC(=O)c1cnccn1)B(O)O [Bortezomib] (partner 0.002 µM)
Outline: as §1

[3] = compound: CCn1c(-c2nonc2N)nc2cnc(Oc3cccc(NC(=O)c4ccc(OCCN5CCOCC5)cc4)c3)cc21 + C[C@]1(O)C[C@@H](c2nc(-c3ccc4ccc(-c5ccccc5)nc4c3)c3c(N)nccn32)C1 [Linsitinib] (partner 1 µM)
Outline: as §1

Mirin + OSI-027 = compound: N=C1NC(=O)/C(=C/c2ccc(O)cc2)S1 [Mirin] + COc1cccc2cc(-c3nc([C@H]4CC[C@H](C(=O)O)CC4)n4ncnc(N)c34)[nH]c12 [OSI-027] (partner 0.5 µM)
Outline: as §1

| Cell Line | relative viability ([1]; first compound 0.04 µM) | relative viability ([1]; first compound 0.1265 µM) | relative viability ([1]; first compound 0.4 µM) | relative viability ([1]; first compound 1.265 µM) | relative viability ([1]; first compound 4 µM) | relative viability ([2]; first compound 0.04 µM) | relative viability ([2]; first compound 0.1265 µM) | relative viability ([2]; first compound 0.4 µM) | relative viability ([2]; first compound 1.265 µM) | relative viability ([2]; first compound 4 µM) | relative viability ([3]; first compound 0.04 µM) | relative viability ([3]; first compound 0.1265 µM) | relative viability ([3]; first compound 0.4 µM) | relative viability ([3]; first compound 1.265 µM) | relative viability ([3]; first compound 4 µM) | relative viability (Mirin + OSI-027; first compound 0.25 µM) | relative viability (Mirin + OSI-027; first compound 0.7906 µM) | relative viability (Mirin + OSI-027; first compound 2.5 µM) | relative viability (Mirin + OSI-027; first compound 7.906 µM) | relative viability (Mirin + OSI-027; first compound 25 µM) |
| --- | --- | --- | --- | --- | --- | --- | --- | --- | --- | --- | --- | --- | --- | --- | --- | --- | --- | --- | --- | --- |
| LCLC-103H | 0.501 | 0.471 | 0.436 | 0.485 | 0.448 | 1.04 | 0.959 | 1.07 | 1.07 | 1.18 | 1.12 | 1.07 | 0.902 | 1.05 | 1.03 | 0.444 | 0.495 | 0.515 | 0.509 | 0.442 |
| LOU-NH91 | 0.523 | 0.565 | 0.541 | 0.542 | 0.558 | 0.408 | 0.543 | 0.507 | 0.523 | 0.504 | 1 | 0.748 | 0.744 | 0.632 | 0.611 | 0.737 | 0.769 | 0.751 | 0.731 | 0.832 |
| LU99A | 0.428 | 0.431 | 0.378 | 0.439 | 0.435 | 1.23 | 1.07 | 1.05 | 1.07 | 1.24 | 0.56 | 0.458 | 0.507 | 0.539 | 0.565 | 0.284 | 0.288 | 0.299 | 0.288 | 0.278 |
| LXF-289 | 0.624 | 0.583 | 0.615 | 0.635 | 0.559 | 1.07 | 0.953 | 0.971 | 1.04 | 0.917 | 1.08 | 1.06 | 0.955 | 0.978 | 0.973 | 0.79 | 0.701 | 0.764 | 0.715 | 0.763 |
| NCI-H23 | 0.496 | 0.584 | 0.541 | 0.42 | 0.531 | 0.868 | 1.13 | 0.905 | 0.98 | 1.16 | 0.636 | 0.827 | – | 0.549 | 0.477 | 0.725 | – | 0.544 | 0.443 | 0.589 |
| NCI-H322M | 0.455 | 0.452 | 0.514 | 0.489 | 0.521 | 1.37 | 1.17 | 1.2 | 1.3 | 1.39 | 1.03 | 0.845 | 0.912 | 0.939 | 0.808 | 0.543 | 0.4 | 0.643 | 0.475 | 0.444 |
| NCI-H441 | 0.205 | 0.204 | 0.204 | 0.17 | 0.257 | 0.523 | 0.366 | 0.301 | 0.356 | 0.383 | 0.545 | 0.766 | 0.635 | 0.566 | 0.465 | 0.673 | 0.6 | 0.598 | 0.473 | 0.602 |
| NCI-H460 | 0.145 | 0.199 | 0.174 | 0.152 | 0.166 | 1.11 | 1.1 | 0.977 | 1.06 | 0.951 | 1.35 | 0.794 | 0.513 | 0.144 | 0.135 | 0.612 | 0.672 | 0.748 | 0.55 | 0.389 |
| NCI-H520 | 0.255 | 0.233 | 0.194 | 0.174 | 0.2 | 0.699 | 0.48 | 0.642 | 0.534 | 0.472 | 1.07 | 1.15 | 1.12 | 0.565 | 0.415 | 0.241 | 0.289 | 0.257 | 0.222 | 0.177 |
| NCI-H647 | 0.518 | 0.345 | 0.346 | 0.292 | 0.374 | 1.3 | 0.938 | – | 0.884 | 0.955 | 0.993 | 1 | 1.01 | 0.729 | 0.558 | 0.759 | 0.688 | 0.572 | 0.645 | 0.503 |
| NCI-H650 | 0.318 | 0.344 | 0.292 | 0.276 | 0.313 | 0.68 | 0.797 | 0.672 | 0.841 | 0.959 | 1.01 | 0.667 | 0.521 | 0.304 | 0.426 | 0.478 | 0.628 | 0.523 | – | 0.58 |
| NCI-H661 | 0.378 | 0.398 | 0.416 | 0.386 | 0.38 | 0.845 | 0.809 | 0.696 | – | 0.782 | 0.652 | 0.612 | 0.518 | 0.471 | 0.45 | 0.755 | 0.893 | 0.702 | 0.62 | 0.606 |
| NCI-H727 | 0.688 | 0.644 | 0.526 | 0.576 | 0.661 | 0.998 | 0.689 | 0.876 | – | 0.744 | 0.265 | 0.379 | 0.406 | 0.506 | 0.268 | 0.833 | 0.596 | 0.529 | 0.586 | 0.877 |
| NCI-H838 | 0.231 | 0.22 | 0.215 | 0.178 | 0.218 | 0.945 | 0.747 | 0.782 | 0.597 | 1.03 | 0.863 | 0.49 | 0.439 | 0.392 | 0.289 | 0.394 | 0.394 | 0.414 | 0.374 | 0.406 |
| NCI-H1355 | 0.412 | 0.387 | 0.407 | 0.373 | 0.368 | 1.21 | 1.17 | 1.22 | 1.07 | 1.38 | 0.904 | 0.77 | 0.802 | 0.834 | 0.812 | 0.411 | 0.376 | 0.379 | 0.406 | 0.424 |
